{
  "source": "patent US20130004579A1",
  "about": "“Use of Plant Lectins to Target Leukocytes” (priority 2011, published 2013)",
  "key": {"[1]": {"tested_on": "IL-1α production by bone marrow-derived dendritic cells (BMDCs)", "assay": "IL-1α ELISA on supernatants of BMDCs incubated with particles", "type": "cell-based, mouse", "conditions": "C57BL/6 BMDCs; LPS 1 ng/ml; serial dilutions SC-PS 31.25 μg/ml to 1 mg/ml with lectin 1.56 to 50 μg/ml; vs unconjugated SC-PS", "procedure": "(§1) BMDCs were isolated and cultured as described in Example 2 at a density of 6.25×10^5 cells/ml in 96 well U-bottomed microplates. Cells were stimulated with a Toll-like receptor (TLR) ligand (LPS or Pam2CSK4) for 6 hours. Cells were then incubated with either medium, alum/SC-PS particles, alum/SC-PS particles conjugated with UEA-1, alum/SC-PS particles conjugated with UEA-1 mimetic or with UEA-1 alone for 24 hours. After incubation, supernatants from BMDCs were collected and cytokine concentrations measured by ELISA. Antibody pairs specific for each cytokine were used for immunoassaying. The following cytokines were measured by immunoassay: IL-1α, IL-1β.\n(§2) Capture antibodies were obtained from BD Pharmingen (San Diego, Calif.), BioLegend (San Diego, Calif.) and R&D Systems, Inc. (Minneapolis, Minn.) and prepared according to the manufacturer's specifications (see Table 2) and a volume of 40 μl/well added to high-binding 96 well ELISA plates. Plates were then incubated for 2 hours at 37° C. or overnight at 4° C. After incubation, plates were washed in PBS-T (×3) and tapped dry. Plates were then blocked with the appropriate blocking solution (see Table 2) and incubated for 2 hours at 37° C. After incubation plates were washed in PBS-T (×3) and tapped dry. Supernatants were transferred from cell culture plates to fresh 96 well plates. All supernatants were stored at −20° C. when not in use. Cell supernatants were applied to plates at the indicated dilutions (see Table 2). A blank triplicate was left on each plate containing the diluent as a blank. Standards were prepared at the starting concentration in the recommended diluent as specified by the manufacturer and transferred to a 96 well plate and serial dilutions (1:2) performed (see Table 2). All standards and samples were applied to plates at 40 μl/well total volume for incubation overnight at 4° C. After incubation plates were washed with PBS-T (×5) and tapped dry. […] Plates were then stopped by the addition of 20 μl/well of 1M H2SO4 and read. […]"}, "[2]": {"tested_on": "IL-1β production by bone marrow-derived dendritic cells (BMDCs)", "assay": "IL-1β ELISA on supernatants of BMDCs incubated with particles", "type": "cell-based, mouse", "conditions": "C57BL/6 BMDCs; LPS 1 ng/ml; serial dilutions SC-PS 31.25 μg/ml to 1 mg/ml with lectin 1.56 to 50 μg/ml; vs unconjugated SC-PS", "procedure": "as §1, §2"}, "[3]": {"tested_on": "IL-1α production by BMDCs from NLRP3−/− mice", "assay": "IL-1α ELISA on supernatants of NLRP3−/− BMDCs", "type": "cell-based, mouse", "conditions": "SC-PS 31.25 μg/ml to 1 mg/ml, lectin 1.56 to 50 μg/ml, vs untargeted particles", "procedure": "as §1\n(§3) Capture antibodies were obtained from BD Pharmingen (San Diego, Calif.), BioLegend (San Diego, Calif.) and R&D Systems, Inc. (Minneapolis, Minn.) and prepared according to the manufacturer's specifications (see Table 2) and a volume of 40 μl/well added to high-binding 96 well ELISA plates. Plates were then incubated for 2 hours at 37° C. or overnight at 4° C. After incubation, plates were washed in PBS-T (×3) and tapped dry. Plates were then blocked with the appropriate blocking solution (see Table 2) and incubated for 2 hours at 37° C. After incubation plates were washed in PBS-T (×3) and tapped dry. […] Plates were then stopped by the addition of 20 μl/well of 1M H2SO4 and read. […]"}, "[4]": {"tested_on": "IL-1β production by BMDCs from NLRP3−/− mice", "assay": "IL-1β ELISA on supernatants of NLRP3−/− BMDCs", "type": "cell-based, mouse", "conditions": "SC-PS 31.25 μg/ml to 1 mg/ml, lectin 1.56 to 50 μg/ml", "procedure": "as §1, §3"}, "BALB/c mice": {"tested_on": "BALB/c mice", "assay": "OVA-specific cytokine responses of peritoneal cells after i.p. immunization", "type": "in vivo, mouse", "conditions": "i.p. days 0 and 35, day 42; OVA 100 μg/ml restimulation; comparison with OVA-loaded PS particles", "procedure": "Five groups of 6-8 week old female BALB/c mice (five mice per group) were i.p, immunized on day 0 with a total volume of 200 μl of vaccine. All ovalbumin (OVA) used was endotoxin-free. The groups were:\nOn day 34, blood was collected from the tail vein of each mouse and used to measure serum antibody titres. The following day, mice were i.p. immunized with an identical series of booster vaccinations as on day 0. Mice were sacrificed on day 42 by cervical dislocation, and cells were harvested.\nSpleens were removed from the mice, and single cell suspensions prepared as described above. Peritoneal lavages were also performed. Cells were plated onto 96 well U-bottomed plates at cell densities of 2×10^6 cells/ml for splenocytes and 1×10^6 cells/ml for peritoneal lavage cells in 200 μl of complete RPMI 1640 medium per well.\nCells were stimulated in vitro with PBS, endotoxin-free OVA (50 μg/ml, 100 μg/ml, 500 μg/ml), phorbol myristate acetate (PMA, 25 ng/ml) combined with anti-CD3 (1 μg/ml) or anti-CD3 alone (0.5 μg/ml). Cells were incubated with antigen for 3 days. Supernatants were then removed and IL-5, IL-10, IL-17 and IFN-γ cytokine concentrations were determined by ELISA. […]"}},
  "data": [
    {"molecule": "PHA-E: SC-PS particles conjugated with biotinylated Phaseolus vulgaris erthyroagglutinin", "values": [
      {"measurement": "TLR-4 agonist-primed IL-1α production", "setting": "[1]", "result": "greatly increased IL-1α production and remained effective across four of the five serial dilutions"},
      {"measurement": "TLR-4 agonist-primed IL-1β production", "setting": "[2]", "result": "greatly increased IL-1β production and remained effective across four serial dilutions"},
      {"measurement": "IL-1α production in the absence of NLRP3", "setting": "[3]", "result": "enhances IL-1α production"},
      {"measurement": "IL-1β production in the absence of NLRP3", "setting": "[4]", "result": "not IL-β production"}
    ]},
    {"molecule": "PHA-L: SC-PS particles conjugated with biotinylated Phaseolus vulgaris leukoagglutinin", "values": [
      {"measurement": "TLR-4 agonist-primed IL-1α production", "setting": "[1]", "result": "greatly increased IL-1α production and remained effective across four of the five serial dilutions"},
      {"measurement": "TLR-4 agonist-primed IL-1β production", "setting": "[2]", "result": "greatly increased IL-1β production and remained effective across four serial dilutions"},
      {"measurement": "IL-1α production in the absence of NLRP3", "setting": "[3]", "result": "enhances IL-1α production"},
      {"measurement": "IL-1β production in the absence of NLRP3", "setting": "[4]", "result": "not IL-1β production"}
    ]},
    {"molecule": "OVA alone: endotoxin-free ovalbumin antigen, 50 μg/mouse, without particles (protein, UniProt P01012 2-386, looked up, endotoxin-free, endotoxin-free ovalbumin antigen, 50 μg/mouse, without particles) Ovalbumin: GSIGAASMEFCFDVFKELKVHHANENIFYCPIAIMSALAMVYLGAKDSTRTQINKVVRFDKLPGFGDSIEAQCGTSVNVHSSLRDILNQITKPNDVYSFSLASRLYAEERYPILPEYLQCVKELYRGGLEPINFQTAADQARELINSWVESQTNGIIRNVLQPSSVDSQTAMVLVNAIVFKGLWEKAFKDEDTQAMPFRVTEQESKPVQMMYQIGLFRVASMASEKMKILELPFASGTMSMLVLLPDEVSGLEQLESIINFEKLTEWTSSNVMEERKIKVYLPRMKMEEKYNLTSVLMAMGITDVFSSSANLSGISSAESLKISQAVHAAHAEINEAGREVVGSAEAGVDAASVSEEFRADHPFLFCIKHIATNAVLFFGRCVSP", "values": [
      {"measurement": "antigen-specific IL-5 by peritoneal cells", "setting": "BALB/c mice", "result": "stronger"},
      {"measurement": "antigen-specific IL-17 by peritoneal cells", "setting": "BALB/c mice", "result": "stronger"}
    ]}
  ]
}
